Assay results reported in patent US20250179047A1, “5-[7-(3,4-DIHYDRO-1H-ISOQUINOLINE-2-CARBONYL)-1,2,3,4 TETRAHYDROISOQUINOLIN-6-YL]-1H-PYRROLE-3-CARBOXAMIDE DERIVATIVES, PHARMACEUTICAL COMPOSITIONS CONTAINING THEM AND THEIR USES AS PRO-APOPTOTIC AGENTS” (LES LABORATOIRES SERVIER, priority 2022, published 2025).

Key:
KMS-12-PE Bcl-2 WT = assay: In vitro cytotoxicity CellTiter-Glo 48 h, KMS-12-PE Bcl-2 WT; assay type: cell-based; details: Homo sapiens, KMS-12-PE, C50 = concentration needed to reach 50% of the cellular viability
In short: (§1)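 Viability measured by CellTiter-Glo luminescence after 48 h compound exposure (11-point curve, 37 °C, 5% CO2). Cells: KMS-12-PE transduced with wild-type or G101V-mutant Bcl-2, FACS-sorted for TagRFP. Reported C50 = concentration reaching 50% cellular viability.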

BCL2 F104I = BCL2 F104I (Homo sapiens, UniProt P10415, F104I); assay: TR-FRET competitive binding assay, BCL2 F104I; details: Ki determined from IC50, read-out: TR_FRET EKI_Bcl2 F104I
Method: The relative binding potency of each compound was determined in a competitive binding assay using time resolved-fluorescence resonance energy transfer (TR-FRET). The method utilised a fluorescein labelled peptide derived from PUMA (5Flu-Ahx-[…]-NH2 wherein Ahx means 6-hexanoic acid monomer and the amino acid sequence is referred to as SEQ ID:01) which binds to a terbium labelled BCL2 or BCLXL protein. The degree of binding or corresponding compound inhibition can be quantified by the TR-FRET signal between the terbium donor and fluorescein acceptor.
The human BCL2_wild-type (also named BCL2_wt), BCL2_G101V mutant and BCLXL_wild-type were E. coli expressed as a N-terminal Halo-fusion proteins and singly labelled with Terbium on the Halo protein to afford the following amino acid sequences:
wherein the BCL2(1-207) sequence corresponds to UniProtKB® primary accession number P10415 and the BCLXL(2-196) sequence corresponds to UniProtKB® primary accession number Q07817-1.
The assay was performed in a 40 μL volume in white 384-standard well plates (Corning #3574). An 11-point serial dilution of each compound was prepared in DMSO and transferred directly to plate followed by addition of fluorescein labelled peptide and lastly protein. Final assay conditions were 0.5 nM BCL2_wt, BCL2_G101V, BCL2_D103Y, BCL2_F104I, BCL2_D111A or BCLXL_wt, 2 or 20 nM fluorescein labelled peptide, 50 mM Hepes pH 7.5, 150 mM NaCl, 0.5 mM TCEP (Tris(2-carboxyethyl)phosphine), 0.05% Tween 20, 5% DMSO. The mixture was incubated for 2 hours at 23° C.
TR-FRET measurements were performed on a Biotek Synergy Neo plate reader. TR-FRET was measured by excitation of the Terbium-donor at 340 nm and subsequent (delay time 100 μs) measurement of terbium and fluorescein emission at 495 nm and 520 nm, respectively, over a collection time of 300 μs. The TR-FRET signal was calculated as the emission-ratio at 520 nm over 495 nm.
The TR-FRET ratio readout for test compounds was normalized against 0% inhibition controls wells and 100% inhibition control wells. Test compound potency (IC50) was estimated by nonlinear regression using the sigmoidal dose-response (variable slope) using Xlfit 4 (IDBS, Guildford, Surrey, UK, model 205). Were the IC50 could not be determined the % inhibition at the highest tested concentration is given.
y=(A+((B−A)/(1+((C/x)^D))))
where y is the normalized TR-TRET ratio measurement for a given concentration of test compound, x is the concentration of test compound, A is the estimated efficacy (% inhibition) at infinite compound dilution, and B is the maximal efficacy (% inhibition). C is the IC50 value and D is the Hill slope coefficient.
The K1 values were determined from the IC50 values according to Cer et al, Nucleic Acids Res, 2009, July 1; 37 (WebServer issue): W441-W445.

BCL2 WT = BCL2 WT (Homo sapiens (Human), UniProt P10415); assay: TR-FRET competitive binding assay, BCL2 WT; details: Ki determined from IC50, read-out: TR_FRET EKI_Bcl2 WT
In short: (§2)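 Competitive TR-FRET displacement of fluorescein-PUMA peptide (2 or 20 nM) from 0.5 nM terbium-labelled N-terminal Halo-fusion BCL2 (1-207, wild type or mutant) or BCLXL (2-196), expressed in E. coli. Buffer 50 mM Hepes pH 7.5, 150 mM NaCl, 5% DMSO; 2 h at 23°C. 520/495 nm ratio fitted over 11 points for IC50, converted to Ki.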

BCL2 D103Y = BCL2 D103Y (Homo sapiens, UniProt P10415, D103Y); assay: TR-FRET competitive binding assay, BCL2 D103Y; details: Ki determined from IC50, read-out: TR_FRET EKI_Bcl2 D103Y
In short: as §2

BCLXL WT = BCLXL WT (Homo sapiens (Human), UniProt Q07817); assay: TR-FRET competitive binding assay, BCLXL WT; details: for Ki: BCLXL WT, Ki determined from IC50, read-out: TR_FRET EKI BclxL; for TR_FRET EKI BCLxL/WT selectivty ratio: ratio Ki BCLxL / Ki BCL2 WT
Sequence of BCLXL WT (Q07817 other isoform, or with tags, fused parts or gaps): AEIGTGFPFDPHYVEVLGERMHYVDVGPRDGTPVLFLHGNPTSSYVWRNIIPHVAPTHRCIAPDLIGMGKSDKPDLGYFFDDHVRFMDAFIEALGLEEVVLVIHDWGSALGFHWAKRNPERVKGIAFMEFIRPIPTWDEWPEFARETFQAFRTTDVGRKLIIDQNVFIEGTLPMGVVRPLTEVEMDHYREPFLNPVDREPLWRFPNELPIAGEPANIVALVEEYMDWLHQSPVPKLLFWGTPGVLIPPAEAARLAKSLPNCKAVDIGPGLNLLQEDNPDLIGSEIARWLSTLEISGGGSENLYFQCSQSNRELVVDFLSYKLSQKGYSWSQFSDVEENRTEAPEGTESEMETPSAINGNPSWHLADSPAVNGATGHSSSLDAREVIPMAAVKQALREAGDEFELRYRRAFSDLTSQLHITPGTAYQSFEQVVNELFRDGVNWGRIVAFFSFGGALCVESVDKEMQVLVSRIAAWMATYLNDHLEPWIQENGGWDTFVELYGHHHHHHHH
In short: as §2

BCL2 G101V [1] = target: BCL2 G101V (Homo sapiens, UniProt P10415, G101V); assay: TR-FRET competitive binding assay, BCL2 G101V; details: BCL2 G101V; Ki determined from IC50; read-out: TR_FRET EKI_Bcl2 G101V
In short: as §2

BCL2 G101V [2] = assay: TR-FRET competitive binding assay, BCL2 G101V; design: species or system human; details: ratio Ki BCL2 G101V / Ki BCL2 WT
In short: as §2

KMS-12-PE Bcl-2 G101V = assay: In vitro cytotoxicity CellTiter-Glo 48 h, KMS-12-PE Bcl-2 G101V; assay type: cell-based; details: for Ratio (G101V/WT): C50 KMS-12-PE Bcl-2 G101V over C50 KMS-12-PE Bcl-2 WT; for IC50: Homo sapiens, KMS-12-PE, 48 h, CellTiter-Glo, C50 = concentration needed to reach 50% of the cellular viability
In short: as §1

| Structure (SMILES) | IC50 (KMS-12-PE Bcl-2 WT) [µM] | Ki (BCL2 F104I) [nM] | Ki (BCL2 WT) [nM] | Ki (BCL2 D103Y) [nM] | Ki (BCLXL WT) [nM] | TR_FRET EKI BCLxL/WT selectivty ratio (BCLXL WT) | Ki (BCL2 G101V [1]) [nM] | TR_FRET EKI G101V/WT selectivty ratio (BCL2 G101V [2]) | Ratio (G101V/WT) (KMS-12-PE Bcl-2 G101V) | IC50 (KMS-12-PE Bcl-2 G101V) [µM] |
| --- | --- | --- | --- | --- | --- | --- | --- | --- | --- | --- |
| Cc1c(N(C(=O)c2cc(-c3cc4c(cc3C(=O)N3Cc5ccccc5C[C@H]3C)CN(C(=O)Cc3cccc(N5CCOCC5)c3)CC4)n(C)c2C)c2ccc(O)cc2)cc(C#N)n1C [Example 6, N-(5-cyano-1,2-dimethylpyrrol-3-yl)-N-(4-hydroxyphenyl)-1,2-dimethyl-5-(7-{[(3R)-3-methyl-3,4-dihydro-1H-isoquinolin-2-yl]carbonyl}-2-{2-[3-(morpholin-4-yl)phenyl]acetyl}-3,4-dihydro-1H-isoquinolin-6-yl)pyrrole-3-carboxamide] | 0.0106 | 2.03 | 0.13 | 0.67 | 1.1 | 8.5 | 0.7 | 5.1 | 5.34 | 0.0566 |
| Cc1cccc(CC(=O)N2CCc3cc(-c4cc(C(=O)N(c5ccc(O)cc5)c5cc(C#N)n(C)c5C)c(C)n4C)c(C(=O)N4Cc5ccccc5C[C@H]4C)cc3C2)c1 [Example 1, N-(5-cyano-1,2-dimethyl-1H-pyrrol-3-yl)-N-(4-hydroxyphenyl)-1,2-dimethyl-5-{7-[(3R)-3-methyl-1,2,3,4-tetrahydroisoquinoline-2-carbonyl]-2-[2-(3-methylphenyl)acetyl]-1,2,3,4-tetrahydroisoquinolin-6-yl}-1H-pyrrole-3-carboxamide] | 0.0087 | 6.12 | 0.34 | – | – | – | 2.2 | 6.5 | 8.92 | 0.0776 |
| Cc1c(N(C(=O)c2cc(-c3cc4c(cc3C(=O)N3Cc5ccccc5C[C@H]3C)CN(C(=O)Cc3ccc(F)cc3)CC4)n(C)c2C)c2ccc(O)cc2)cc(C#N)n1C [Example 5, N-(5-cyano-1,2-dimethyl-1H-pyrrol-3-yl)-5-{2-[2-(4-fluorophenyl)acetyl]-7-[(3R)-3-methyl-1,2,3,4-tetrahydroisoquinoline-2-carbonyl]-1,2,3,4-tetrahydroisoquinolin-6-yl}-N-(4-hydroxyphenyl)-1,2-dimethyl-1H-pyrrole-3-carboxamide] | 0.0057 | 4.45 | 0.18 | – | – | – | 1.3 | 7.3 | 4.98 | 0.0285 |
| Cc1cc(O)ccc1N(C(=O)c1cc(-c2cc3c(cc2C(=O)N2Cc4ccccc4C[C@H]2C)CN(C(=O)Cc2ccccc2)CC3)n(C)c1C)c1cc(C#N)n(C)c1C [Example 9, N-(5-cyano-1,2-dimethyl-1H-pyrrol-3-yl)-N-(4-hydroxy-2-methylphenyl)-1,2-dimethyl-5-{7-[(3R)-3-methyl-1,2,3,4-tetrahydroisoquinoline-2-carbonyl]-2-(2-phenylacetyl)-1,2,3,4-tetrahydroisoquinolin-6-yl}-1H-pyrrole-3-carboxamide] | 0.0254 | 17.9 | 0.48 | 1.27 | – | – | 2.8 | 5.8 | 7.01 | 0.178 |
| Cc1c(N(C(=O)c2cc(-c3cc4c(cc3C(=O)N3Cc5ccccc5C[C@H]3C)CN(C(=O)Cc3cccc(N5CCN6CCOC[C@@H]6C5)c3)CC4)n(C)c2C)c2ccccc2)cc(C#N)n1C [Example 8, 5-[2-(2-{3-[(9aS)-hexahydro-1H-piperazino[2,1-c]morpholin-8-yl]phenyl}acetyl)-7-{[(3R)-3-methyl-3,4-dihydro-1H-isoquinolin-2-yl]carbonyl}-3,4-dihydro-1H-isoquinolin-6-yl]-N-(5-cyano-1,2-dimethylpyrrol-3-yl)-1,2-dimethyl-N-phenylpyrrole-3-carboxamide] | 0.0026 | 3.46 | 0.06 | – | 2.8 | 47.46 | 1.2 | 20.3 | 27.6 | 0.0727 |
| Cc1c(C(=O)N(c2ccccc2)c2cc(C#N)n(CCO)c2C)cc(-c2cc3c(cc2C(=O)N2Cc4ccccc4C[C@H]2C)CN(C(=O)Cc2ccccc2)CC3)n1C [Example 4, N-[5-cyano-1-(2-hydroxyethyl)-2-methyl-pyrrol-3-yl]-1,2-dimethyl-5-[7-[(3R)-3-methyl-3,4-dihydro-1H-isoquinoline-2-carbonyl]-2-(2-phenylacetyl)-3,4-dihydro-1H-isoquinolin-6-yl]-N-phenyl-pyrrole-3-carboxamide] | 0.0048 | 11.9 | 0.11 | – | – | – | 3.2 | 30.2 | 25.9 | 0.124 |
| COc1cccc(CC(=O)N2CCc3cc(-c4cc(C(=O)N(c5ccc(O)cc5)c5cc(C#N)n(C)c5C)c(C)n4C)c(C(=O)N4Cc5ccccc5C[C@H]4C)cc3C2)c1 [Example 7, N-(5-cyano-1,2-dimethyl-1H-pyrrol-3-yl)-N-(4-hydroxyphenyl)-5-{2-[2-(3-methoxyphenyl)acetyl]-7-[(3R)-3-methyl-1,2,3,4-tetrahydroisoquinoline-2-carbonyl]-1,2,3,4-tetrahydroisoquinolin-6-yl}-1,2-dimethyl-1H-pyrrole-3-carboxamide] | 0.0058 | 2.6 | 0.14 | 0.88 | – | – | 0.8 | 5.7 | 12.2 | 0.0713 |
